Reference: patent US6528041B2, “Process for the preparation of 1-Propyl-2, 4, 5-trimethoxybenzene from toxic β-asarone of acorus calamus or from crude calamus oil containing β-asarone” (Council of Scientific and Industrial Research, priority 2000, dated 2003)

Assays:
albino mice = experiment: acute toxicity test for maximum tolerance dose (MTD) as a single dose; format: in vivo; conditions: for maximum tolerant doses (MTD): albino mice (25±2 g), intraperitoneal single dose, observed for 24 hr
Description: There has been a lot of research on the effect of the substituents and functional groups which make a substance toxic or eliminate the toxicity. Any chemical substance that is electrophilic or metabolized to electrophilic species are often quite toxic, because electrophilic substances can react covalently with nucleophilic substituents of cellular macromolecules such as DNA, RNA, enzymes and proteins. These irreversible covalent interactions with important cellular macromolecules interfere with the macromolecule's function and can lead to a variety of toxic effects including cancer, hepatotoxicity, reproductive toxicity and developmental toxicity. It has been realised that the side chain of β-asarone contains carbon-carbon double bond, which can be metabolized to epoxide. The epoxide so formed is highly electrophilic and is capable of interacting with biological tissues, and could therefore, be the reason for the toxicity of β-asarone. In view of the above fact, it was possible to reduce the toxicity of β-asarone by hydrogenating the side olefinic bond into 1-propyl-2,4,5-trimethoxybenzene having a single bond as a side chain. The toxicity of the reduced calamus oil as well as of 1-Propyl-2,4,5-trimethoxy-benzene was tested. Toxicity test was performed on albino mice (body weight 25±2 g). […] Where the initial pilot dose was lethal, the sample was diluted. This was the acute toxicity test for maximum tolerance dose (MTD) as a single dose. […] It must be noted that further reduction in toxicity is possible by further dilution as the odor intensity of 1-Propyl-2,4,5-trimethoxybenzene and reduced calamus oil is substantially stronger than both β-asarone and calamus oil.

[1] = test system: [3H] spiperone binding sites; conditions: in vitro; cited from earlier work
[2] = test system: [3H] raclopride binding sites; conditions: in vitro; cited from earlier work
rats = conditions: cited from earlier work
human lymphocytes = human lymphocytes in-vitro after metabolic activation; cited from earlier work
animals = conditions: cited from earlier work

With CCCc1cc(OC)c(OC)cc1OC [1-Propyl-2,4,5-trimethoxybenzene] the “toxicity relative to the unreduced starting material (times less toxic)” value (albino mice; 1-Propyl-2,4,5-trimethoxybenzene vs β-asarone, reduced calamus oil vs calamus oil, from MTD in albino mice) was “nearly five times and five” and the “maximum tolerant doses (MTD)” value (albino mice) was 0.56 ml/kg b.w.

For CCCc1cc(OC)c(OC)c(C(=O)NCC2CCCN2CC)c1O (stereo not drawn) [salicylamide derivative, 5,6-dimethoxy-N[(1-ethyl-2-pyrrolidinyl)methyl]-3-propylsalicylamide], the “affinity for [3H] spiperone binding sites” value [1] is listed as “high and stereoselective affinity” and the “affinity for [3H] raclopride binding sites” value [2] is listed as “high and stereoselective affinity”.

For C/C=C/c1cc(OC)c(OC)cc1OC [α-Asarone], the lethality (rats) is given as “fatal”.

For C/C=C\c1cc(OC)c(OC)cc1OC [β-asarone, cis-2,4,5-trimethoxy-1-propenylbenzene], the chromosome damaging effect (human lymphocytes) is given as “chromosome damaging effect”, the tumour induction (animals; after oral administration) is given as “induce tumours in the duodenal region” and the carcinogenicity (animals; animals, higher percentage of β-asarone) is given as “carcinogenic”. The “maximum tolerant doses (MTD)” value (albino mice) was 0.12 ml/kg b.w.
